# Laboratory results reported in patent US20230172201A1, “Use of 4-Phenylbutyric Acid and/or 3-Phenylbutyric Acid and/or 2-Phenylbutyric Acid in Preventing and Treating Cryptogamic Diseases” (Institut National de Recherche Pour L'Agriculture, …, priority 2020, published 2023).
# How the values were obtained:
# Phytophthora parasitica = test: Radial growth of the oomycete; assay type: cell-based
# Cercospora beticola = test: Radial growth of the mycelium; assay type: cell-based; conditions: 528 h
# Magnaporthe oryzae = test: microbe, parasite or virus in culture; assay type: cell-based; conditions: Pyricularia oryzae, 336 h
# [1] = tested on: Fusarium oxysporum f. sp melonis; test: Radial growth of the mycelium; assay type: cell-based; conditions: 288 h
# [2] = tested on: Botrytis cinerea (BMM strain); test: Protection of thale cress leaves against gray rot, B. cinerea spore inoculum with or without 4-PBA; assay type: in vivo; conditions: A. thaliana Col-0 leaves, 4-PBA 1 mM in inoculum
# Alternaria solani = test: Radial growth of the mycelium; assay type: cell-based; conditions: 528 h
# Fusarium verticilloides = test: Radial growth of the mycelium; assay type: cell-based; conditions: 288 h
# [3] = tested on: Colletrotrichum lindemuthianum; test: Radial growth of the mycelium; assay type: cell-based
# [4] = tested on: Botrytis cinerea (BMM strain); test: Mycelial development in liquid medium, absorbance at 600 nm (nephelometry); assay type: cell-based; conditions: 1 mM
# Helmintosporium teres = test: Radial growth of the mycelium; assay type: cell-based
# Fusarium graminearum = test: microbe, parasite or virus in culture; assay type: cell-based
# [5] = tested on: Arabidopsis thaliana (ecotype Col-0); test: Effect of watering with 4-PBA on vegetative growth (rosette weight); assay type: in vivo; conditions: watering with 1 mM once a week for 4 weeks
# Procedure: Material and Methods. The seeds of A. thaliana (ecotype Col-0) were sown in individual pots directly on compost without a prior step of stratification. […] These plants were then separated into 2 batches with 12 plants each, one watered with distilled water, the other with a solution of 4-PBA at a final concentration of 1 mM. In practice, watering took place once a week on a fixed day and at a fixed time, for 4 consecutive weeks (FIG. 5a). […] The rosette of each of the plantlets was then weighed to evaluate the effect of watering with 4-PBA on vegetative growth.
# Phytophthora capsici = test: Radial growth of the oomycete; assay type: cell-based
# [6] = radial growth EC50 compared with B. cinerea
# [7] = time 22 days (day control colonized the whole Petri dish)
# [8] = time 12 days (day control colonized the whole Petri dish)
# [9] = lowest concentration tested (1 mM)
compound,measurement,setting,value
"O=C(O)CCCc1ccccc1 [4-PBA, 4-Phenylbutyric acid]",inhibition at 1000 µM,"Phytophthora parasitica; Phytophthora nicotianae, 240 h, 1 mM 4-PBA, time 10 days",95%
same,inhibition at 2000 µM,"Phytophthora parasitica; Phytophthora nicotianae, 240 h, 2 mM 4-PBA, time 10 days",99%
same,inhibition at 5000 µM,"Phytophthora parasitica; Phytophthora nicotianae, 240 h, 5 mM 4-PBA, time 10 days",100%
same,EC50,"Phytophthora parasitica; Phytophthora nicotianae, 240 h, time 10 days (day control colonized the whole Petri dish)",0.00024 µM
same,difference between EC50 calculated for B. cinerea and for P. parasitica,Phytophthora parasitica; Table 2 and FIG. 6b,7 orders of magnitude
same,times more sensitive to the molecule than B. cinerea,Phytophthora parasitica; [6],about 12 million
same,inhibition at 1000 µM,"Cercospora beticola; 1 mM 4-PBA, time 22 days",0%
same,inhibition at 2000 µM,"Cercospora beticola; 2 mM 4-PBA, time 22 days",13%
same,inhibition at 5000 µM,"Cercospora beticola; 5 mM 4-PBA, time 22 days",67%
same,EC50,Cercospora beticola; [7],2810 µM
same,EC50,Magnaporthe oryzae,1330 µM
same,inhibition at 1000 µM,Magnaporthe oryzae,39%
same,inhibition at 2000 µM,Magnaporthe oryzae,66%
same,inhibition at 5000 µM,Magnaporthe oryzae,100%
same,inhibition at 1000 µM,"[1]; 1 mM 4-PBA, time 12 days",68%
same,inhibition at 2000 µM,"[1]; 2 mM 4-PBA, time 12 days",80%
same,inhibition at 5000 µM,"[1]; 5 mM 4-PBA, time 12 days",99%
same,EC50,[1]; [8],400 µM
same,leaves that did not display symptoms,"[2]; 5·10^4 spores/mL, 4 days after inoculation",37%
same,proportion of lesions whose diameter was greater than 4 mm,[2]; 4 days after inoculation,23%
same,average diameter of the lesions divided by,"[2]; 4 days, relative to fungus alone",2.2 times
same,"ratio of gDNA of the fungus to that of the plant, median decrease by a factor",[2]; quantitative PCR,10
same,inhibition at 1000 µM,"Alternaria solani; 1 mM 4-PBA, time 22 days",25%
same,inhibition at 2000 µM,"Alternaria solani; 2 mM 4-PBA, time 22 days",62%
same,inhibition at 5000 µM,"Alternaria solani; 5 mM 4-PBA, time 22 days",100%
same,EC50,Alternaria solani; [7],1650 µM
same,inhibition at 1000 µM,"Fusarium verticilloides; 1 mM 4-PBA, time 12 days",66%
same,inhibition at 2000 µM,"Fusarium verticilloides; 2 mM 4-PBA, time 12 days",74%
same,inhibition at 5000 µM,"Fusarium verticilloides; 5 mM 4-PBA, time 12 days",98%
same,EC50,Fusarium verticilloides; [8],500 µM
same,inhibition at 1000 µM,"[3]; 288 h, 1 mM 4-PBA, time 12 days",67%
same,inhibition at 2000 µM,"[3]; 288 h, 2 mM 4-PBA, time 12 days",75%
same,inhibition at 5000 µM,"[3]; 288 h, 5 mM 4-PBA, time 12 days",97%
same,EC50,"[3]; 288 h, time 12 days (day control colonized the whole Petri dish)",450 µM
same,persistence of the molecule,[3]; [9],≤ 30 days
same,repression of mycelial growth measured by nephelometry,"[4]; 4 days, Example 3",94%
same,inhibition at 1000 µM,"[4]; Botrytis cinerea, 96 h, incubation for 4 days, Example 4, read-out: degree of inhibition",97%
same,inhibition at 1000 µM,"Helmintosporium teres; 240 h, 1 mM 4-PBA, time 10 days",94%
same,inhibition at 2000 µM,"Helmintosporium teres; 240 h, 2 mM 4-PBA, time 10 days",97%
same,inhibition at 5000 µM,"Helmintosporium teres; 240 h, 5 mM 4-PBA, time 10 days",100%
same,EC50,"Helmintosporium teres; 240 h, time 10 days (day control colonized the whole Petri dish)",0.00665 µM
same,persistence of the molecule,Helmintosporium teres; [9],≤ 30 days
same,EC50 times lower than that of B. cinerea,Helmintosporium teres; [6],450 000 times
same,inhibition at 1000 µM,"Fusarium graminearum; Fusarium graminearum, 144 h",48%
same,inhibition at 2000 µM,"Fusarium graminearum; Fusarium graminearum, 144 h",97%
same,inhibition at 5000 µM,"Fusarium graminearum; Fusarium graminearum, 144 h",99%
same,persistence of the molecule,Fusarium graminearum; [9],up to 10 days
same,effect on the aerial biomass,[5],no effect
same,growth at higher concentrations,Phytophthora capsici; 2 and 5 mM,complete absence of growth for 20 days
same,inhibition at 1000 µM,"Phytophthora capsici; Phytophthora capsici, 216 h, 1 mM 4-PBA, time 9 days",90%
same,inhibition at 2000 µM,"Phytophthora capsici; Phytophthora capsici, 216 h, 2 mM 4-PBA, time 9 days",100%
same,inhibition at 5000 µM,"Phytophthora capsici; Phytophthora capsici, 216 h, 5 mM 4-PBA, time 9 days",100%
